# Assay results: PubChem BioAssay (NCI)
#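 A five-concentration, 48-hour dose response in 96-well plates underlies each endpoint, interpolated linearly between surrounding concentrations. At the TGI there is no net growth.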
# Experiments:
# Assay in all cases: growth of human tumour cells (NCI), 48 h
# NCI-H522 lung = test system: NCI-H522 lung
# SF-295 CNS = test system: SF-295 CNS
# HT29 colon = test system: HT29 colon
# PC-3 prostate = test system: PC-3 prostate
# NCI/ADR-RES ovarian = test system: NCI/ADR-RES ovarian
# HS 578T breast = test system: HS 578T breast
# HCT-116 colon = test system: HCT-116 colon
# SNB-75 CNS = test system: SNB-75 CNS
# MDA-N = test system: MDA-N
# TK-10 renal = test system: TK-10 renal
# SF-539 CNS = test system: SF-539 CNS
# IGROV1 ovarian = test system: IGROV1 ovarian
# COLO 205 colon = test system: COLO 205 colon
# A549 NSCLC = test system: A549 NSCLC
# OVCAR-8 ovarian = test system: OVCAR-8 ovarian
# UACC-62 melanoma = test system: UACC-62 melanoma
# A498 renal = test system: A498 renal
# SW-620 colon = test system: SW-620 colon
# SK-MEL-5 melanoma = test system: SK-MEL-5 melanoma
# HOP-92 NSCLC = test system: HOP-92 NSCLC
# SK-OV-3 ovarian = test system: SK-OV-3 ovarian
# HOP-62 NSCLC = test system: HOP-62 NSCLC
# MALME-3M melanoma = test system: MALME-3M melanoma
# HL-60(TB) leukemia = test system: HL-60(TB) leukemia
# MCF7 breast = test system: MCF7 breast
# SF-268 CNS = test system: SF-268 CNS
# OVCAR-3 ovarian = test system: OVCAR-3 ovarian
# MDA-MB-435 = test system: MDA-MB-435
# SNB-19 CNS = test system: SNB-19 CNS
# OVCAR-4 ovarian = test system: OVCAR-4 ovarian
# NCI-H23 lung = test system: NCI-H23 lung
# U251 CNS = test system: U251 CNS
# KM12 colon = test system: KM12 colon
# M14 melanoma = test system: M14 melanoma
# 786-0 renal = test system: 786-0 renal
# NCI-H460 lung = test system: NCI-H460 lung
# OVCAR-5 ovarian = test system: OVCAR-5 ovarian
# DU-145 prostate = test system: DU-145 prostate
# K-562 leukemia = test system: K-562 leukemia
# SK-MEL-28 melanoma = test system: SK-MEL-28 melanoma
# LOX IMVI melanoma = test system: LOX IMVI melanoma
# CAKI-1 renal = test system: CAKI-1 renal
# SN12C renal = test system: SN12C renal
# SR leukemia = test system: SR leukemia
# T-47D breast = test system: T-47D breast
# HCT-15 colon = test system: HCT-15 colon
# ACHN renal = test system: ACHN renal
# UACC-257 melanoma = test system: UACC-257 melanoma
# EKVX NSCLC = test system: EKVX NSCLC
# NCI-H226 lung = test system: NCI-H226 lung
# SK-MEL-2 melanoma = test system: SK-MEL-2 melanoma
structure (smiles),measurement,setting,value
CC1(C)OP(=O)(c2ccccc2)C=C1Sc1ccc([N+](=O)[O-])cc1[N+](=O)[O-] (stereo unspecified),TGI,NCI-H522 lung,36.6 µM
same,TGI,SF-295 CNS,> 100 µM
same,TGI,HT29 colon,> 100 µM
same,TGI,PC-3 prostate,> 100 µM
same,TGI,NCI/ADR-RES ovarian,> 100 µM
same,TGI,HS 578T breast,> 100 µM
same,TGI,HCT-116 colon,> 100 µM
same,TGI,SNB-75 CNS,> 100 µM
same,TGI,MDA-N,> 100 µM
same,TGI,TK-10 renal,> 100 µM
same,TGI,SF-539 CNS,> 100 µM
same,TGI,IGROV1 ovarian,> 100 µM
same,TGI,COLO 205 colon,> 100 µM
same,TGI,A549 NSCLC,> 100 µM
same,TGI,OVCAR-8 ovarian,> 100 µM
same,TGI,UACC-62 melanoma,> 100 µM
same,TGI,A498 renal,> 100 µM
same,TGI,SW-620 colon,> 100 µM
same,TGI,SK-MEL-5 melanoma,> 100 µM
same,TGI,HOP-92 NSCLC,> 100 µM
same,TGI,SK-OV-3 ovarian,> 100 µM
same,TGI,HOP-62 NSCLC,> 100 µM
same,TGI,MALME-3M melanoma,> 100 µM
same,TGI,HL-60(TB) leukemia,37.4 µM
same,TGI,MCF7 breast,> 100 µM
same,TGI,SF-268 CNS,> 100 µM
same,TGI,OVCAR-3 ovarian,> 100 µM
same,TGI,MDA-MB-435,> 100 µM
same,TGI,SNB-19 CNS,> 100 µM
same,TGI,OVCAR-4 ovarian,> 100 µM
same,TGI,NCI-H23 lung,> 100 µM
same,TGI,U251 CNS,> 100 µM
same,TGI,KM12 colon,> 100 µM
same,TGI,M14 melanoma,> 100 µM
same,TGI,786-0 renal,> 100 µM
same,TGI,NCI-H460 lung,> 100 µM
same,TGI,OVCAR-5 ovarian,> 100 µM
same,TGI,DU-145 prostate,> 100 µM
same,TGI,K-562 leukemia,67.3 µM
same,TGI,SK-MEL-28 melanoma,> 100 µM
same,TGI,LOX IMVI melanoma,> 100 µM
same,TGI,CAKI-1 renal,> 100 µM
same,TGI,SN12C renal,> 100 µM
same,TGI,SR leukemia,42.9 µM
same,TGI,T-47D breast,> 100 µM
same,TGI,HCT-15 colon,> 100 µM
same,TGI,ACHN renal,> 100 µM
same,TGI,UACC-257 melanoma,> 100 µM
same,TGI,EKVX NSCLC,> 100 µM
same,TGI,NCI-H226 lung,> 100 µM
same,TGI,SK-MEL-2 melanoma,> 100 µM
